22 compounds from US8816090B2, “Benzisoxazole derivatives” (Pfizer Inc., priority 2005, dated 2014) can be followed below.

One series concerns the target T1, Human 5-HT4(d) (Homo sapiens, UniProt Q13639).
T1 construct: expressed in transfected cells
Description: Agonist-induced cAMP elevation in human 5-HT4(d) transfected HEK293 cells. The settings on record: for Emax: HEK293, cAMP production normalized to the amount produced by 1,000 nM serotonin; for EC50: cAMP elevation (HTRF), human 5-HT4(d) transfected HEK293 cells. Type of series: cell-based. On the procedure: Human 5-HT4(d) transfected HEK293 cells were established in-house. The cells were grown at 37° C. and 5% CO2 in DMEM supplemented with 10% FCS, 20 mM HEPES (pH 7.4), 200 μg/ml hygromycin B (Gibco), 100 units/ml penicillin and 100 μg/ml streptomycin.
The cells were grown to 60-80% confluence. On the previous day before treatment with compounds dialyzed FCS (Gibco) was substituted for normal and the cells were incubated overnight.
Compounds were prepared in 96-well plates (12.5 μl/well). The cells were harvested with PBS/1 mM EDTA, centrifuged and washed with PBS. At the beginning of the assay, cell pellet was resuspended in DMEM supplemented with 20 mM HEPES, 10 μM pargyline (Sigma) and 1 mM 3-isobutyl-1-methylxanthine (Sigma) at the concentration of 1.6×10^5 cells/ml and left for 15 min at room temperature. The reaction was initiated by addition of the cells into plates (12.5 μl/well). After incubation for 15 min at room temperature, 1% Triton X-100 was added to stop the reaction (25 μl/well) and the plates were left for 30 minutes at room temperature. Homogenous time-resolved fluorescence-based cAMP (Schering) detection was made according to the manufacturer's instruction. ARVOsx multilabel counter (Wallac) was used to measure HTRF (excitation 320 nm, emission 665 nm/620 nm, delay time 50 μs, window time 400 μs).
Data was analyzed based on the ratio of fluorescence intensity of each well at 620 nm and 665 nm followed by cAMP quantification using cAMP standard curve. Enhancement of cAMP production elicited by each compound was normalized to the amount of cAMP produced by 1,000 nM serotonin (Sigma).

T1 sequence (Q13639 1-360 isoform Q13639-3): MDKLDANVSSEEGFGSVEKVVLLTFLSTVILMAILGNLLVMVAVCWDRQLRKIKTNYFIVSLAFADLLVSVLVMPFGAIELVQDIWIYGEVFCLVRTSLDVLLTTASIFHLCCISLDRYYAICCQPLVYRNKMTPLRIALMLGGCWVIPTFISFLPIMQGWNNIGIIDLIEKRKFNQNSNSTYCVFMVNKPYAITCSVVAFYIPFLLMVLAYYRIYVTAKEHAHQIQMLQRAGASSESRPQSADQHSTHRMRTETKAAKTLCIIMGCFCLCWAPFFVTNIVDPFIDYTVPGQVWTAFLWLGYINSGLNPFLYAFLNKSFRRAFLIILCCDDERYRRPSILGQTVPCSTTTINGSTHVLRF

For `O=C(O)C1(CN2CCC(CNc3noc4cccc(OCC(F)(F)F)c34)CC2)CCOCC1` [Example 53, 4-{[4-({[4-(2,2,2-Trifluoroethoxy)-1,2-benzisoxazol-3-yl]amino}methyl)piperidin-1-yl]methyl}-tetrahydro-2H-pyran-4-carboxylic acid], the melting point amounted to 171.9 °C. On Human 5-HT4(d), this compound had an Emax of 59% and an EC50 of 2.8 nM.

As for `O=C(O)[C@H]1CC[C@H](CN2CCC(COc3noc4cccc(OCC(F)(F)F)c34)CC2)CC1` [Example 4, trans-4-{[4-({[4-(2,2,2-Trifluoroethoxy)-1,2-benzisoxazol-3-yl]oxy}methyl)-piperidin-1-yl]methyl}cyclohexanecarboxylic acid], the melting point stood at 158 °C. At Human 5-HT4(d), this compound registered an Emax of 77% and an EC50 of 1.2 nM.

In the case of `O=C(O)C1(CN2CCC(COc3noc4cccc(OCC(F)(F)F)c34)CC2)CCC1` [Example 2, 1-{[4-({[4-(2,2,2-Trifluoroethoxy)-1,2-benzisoxazol-3-yl]oxy}methyl)piperidin-1-yl]methyl}-cyclobutanecarboxylic acid], the melting point is 164.9 °C. On Human 5-HT4(d), the Emax was determined as 47% and the concentration for a half-maximal effect (EC50) turned out to be 0.51 nM.

For the compound `O=C(O)C1(CN2CCC(CCOc3noc4cccc(OCC(F)(F)F)c34)CC2)CCOCC1` [Example 7, 4-{[4-(2-{[4-(2,2,2-Trifluoroethoxy)-1,2-benzisoxazol-3-yl]oxy}ethyl)piperidin-1-yl]methyl}tetrahydro-2H-pyran-4-carboxylic acid], the melting point turned out to be 176.6 °C. Further, on Human 5-HT4(d), the Emax was found to be 35% and the EC50 was found to be 48 nM.

`O=C(O)C1(CN2CCC(COc3noc4cccc(OCC5CCC5)c34)CC2)CCC1` [Example 20, 1-{[4-({[4-(Cyclobutylmethoxy)-1,2-benzisoxazol-3-yl]oxy}methyl)piperidin-1-yl]methyl}cyclo-butanecarboxylic acid] had a melting point of 176.9 °C. Besides, on Human 5-HT4(d), the Emax came to 50% and the EC50 was 0.24 nM.

In the case of `CC(C)COc1cccc2onc(OCC3CCN(C[C@H]4CC[C@H](C(=O)O)CC4)CC3)c12` [Example 14, trans-4-[(4-{[(4-Isobutoxy-1,2-benzisoxazol-3-yl)oxy]methyl}piperidin-1-yl)methyl]cyclohexane-carboxylic acid], the melting point is 103.3 °C. At Human 5-HT4(d), this compound gave an Emax of 41% and an EC50 of 2 nM.

Regarding `CC(C)COc1cccc2onc(OCC3CCN(CC4(C(=O)O)CCC4)CC3)c12` [Example 12, 1-[(4-{[(4-Isobutoxy-1,2-benzisoxazol-3-yl)oxy]methyl}piperidin-1-yl)methyl]cyclobutanecarboxylic acid], the melting point is 168.8 °C. Besides, on Human 5-HT4(d), the Emax is 45% and it took 2.3 nM to reach a half-maximal effect (EC50).

With `CC(C)COc1cccc2onc(OCC3CCN(CC4(C(=O)O)CCCC4)CC3)c12` [Example 9, 1-[(4-{[(4-Isobutoxy-1,2-benzisoxazol-3-yl)oxy]methyl}piperidin-1-yl)methyl]cyclopentane-carboxylic acid], the melting point amounted to 156.3 °C. Further, at Human 5-HT4(d), the Emax was determined as 36% and a half-maximal effect (EC50) was put at 2.9 nM.

For the compound `O=C(O)C1(CN2CCC(COc3noc4cccc(OCC5CCC5)c34)CC2)CCCC1` [Example 17, 1-{[4-({[4-(Cyclobutylmethoxy)-1,2-benzisoxazol-3-yl]oxy}methyl)piperidin-1-yl]methyl}cyclo-pentanecarboxylic acid], the melting point was determined as 173.8 °C. Moreover, on Human 5-HT4(d), the Emax was determined as 41% and it took 3.6 nM to reach a half-maximal effect (EC50).

As for `O=C(O)[C@H]1CC[C@H](CN2CCC(COc3noc4cccc(OC5CCOCC5)c34)CC2)CC1` [Example 29, trans-4-{[4-({[4-(Tetrahydro-2H-pyran-4-yloxy)-1,2-benzisoxazol-3-yl]oxy}methyl)piperidin-1-yl]methyl}cyclohexanecarboxylic acid], the melting point came to 154.6 °C. Moreover, on Human 5-HT4(d), the maximum response (Emax) was found to be 70% and a half-maximal effect (EC50) was put at 11 nM.

As for `O=C(O)C1(CN2CCC(COc3noc4cccc(O[C@H]5CC[C@@H](O)CC5)c34)CC2)CCCC1` [Example 45, 1-({4-[({4-[(cis-4-Hydroxycyclohexyl)oxy]-1,2-benzisoxazol-3-yl}oxy)methyl]piperidin-1-yl}methyl)-cyclopentanecarboxylic acid], the melting point was 189.6 °C. Besides, at Human 5-HT4(d), the Emax stood at 42% and the EC50 amounted to 3.8 nM.

Regarding `CC(C)COc1cccc2onc(NCC3CCN(CC4(C(=O)O)CCOCC4)CC3)c12` [Example 16, 4-[(4-{[(4-Isobutoxy-1,2-benzisoxazol-3-yl)amino]methyl}piperidin-1-yl)methyl]tetrahydro-2H-pyran-4-carboxylic acid], the melting point was determined as 178.2 °C. On Human 5-HT4(d), this compound had an Emax of 55% and an EC50 of 1.6 nM.

`CC(C)COc1cccc2onc(OCC3CCN(CCC4(C(=O)O)CCOCC4)CC3)c12` [Example 13, 4-[2-(4-{[(4-Isobutoxy-1,2-benzisoxazol-3-yl)oxy]methyl}piperidin-1-yl)ethyl]tetrahydro-2H-pyran-4-carboxylic acid]: the melting point stood at 213.8 °C. In addition, on Human 5-HT4(d), the Emax came out at 54% and the EC50 turned out to be 2.7 nM.

`O=C(O)C1(CN2CCC(COc3noc4cccc(O[C@H]5CC[C@@H](CO)CC5)c34)CC2)CCCC1` [Example 48, 1-[(4-{[(4-{[cis-4-(Hydroxymethyl)cyclohexyl]oxy}-1,2-benzisoxazol-3-yl)oxy]methyl}piperidin-1-yl)methyl]cyclopentanecarboxylic acid] displayed a melting point of 188 °C. On Human 5-HT4(d), this compound yielded an Emax of 43% and an EC50 of 4.3 nM.

`O=C(O)C1(CCN2CCC(COc3noc4cccc(OCC(F)(F)F)c34)CC2)CCOCC1` [Example 5, 4-{2-[4-({[4-(2,2,2-Trifluoroethoxy)-1,2-benzisoxazol-3-yl]oxy}methyl)piperidin-1-yl]ethyl}tetrahydro-2H-pyran-4-carboxylic acid]: the melting point was 220.5 °C. On Human 5-HT4(d), this compound displayed an Emax of 70% and an EC50 of 2.7 nM.

`CC(C)(CN1CCC(COc2noc3cccc(OCC(F)(F)F)c23)CC1)C(=O)O` [Example 3, 2,2-Dimethyl-3-[4-({[4-(2,2,2-trifluoroethoxy)-1,2-benzisoxazol-3-yl]oxy}methyl)-piperidin-1-yl]propanoic acid]: the melting point was 129.2 °C. At Human 5-HT4(d), this compound came in with an Emax of 34% and an EC50 of 0.69 nM.

In turn, `O=C(O)C1(CN2CCC(COc3noc4cccc(OC5CCCC5)c34)CC2)CCOCC1` [Example 24, 4-{[4-({[4-(Cyclopentyloxy)-1,2-benzisoxazol-3-yl]oxy}methyl)piperidin-1-yl]methyl}tetrahydro-2H-pyran-4-carboxylic acid] gave a melting point of 177.7 °C. On Human 5-HT4(d), this compound came in with an Emax of 52% and an EC50 of 1.4 nM.

With `CC(C)COc1cccc2onc(OCC3CCN(CC4(C(=O)O)CCOCC4)CC3)c12` [Example 10, 4-[(4-{[(4-Isobutoxy-1,2-benzisoxazol-3-yl)oxy]methyl}piperidin-1-yl)methyl]tetrahydro-2H-pyran-4-carboxylic acid], the melting point turned out to be 153.4 °C. For the same compound, at Human 5-HT4(d), the Emax was determined as 45% and the EC50 is 3.1 nM.

The compound `CC(C)COc1cccc2onc(OCCC3CCN(CC4(C(=O)O)CCOCC4)CC3)c12` [Example 15, 4-[(4-{2-[(4-isobutoxy-1,2-benzisoxazol-3-yl)oxy]ethyl}piperidin-1-yl)methyl]tetrahydro-2H-pyran-4-carboxylic acid] registered a melting point of 117.8 °C. In addition, on Human 5-HT4(d), the Emax was found to be 32% and the response was half-maximal at 39 nM (EC50).

Consider `O=C(O)C(F)(F)CN1CCC(COc2noc3cccc(OCC(F)(F)F)c23)CC1` [Example 6, 2,2-Difluoro-3-[4-({[4-(2,2,2-trifluoroethoxy)-1,2-benzisoxazol-3-yl]oxy}methyl)-piperidin-1-yl]propanoic acid], for which the melting point came out at 227.1 °C. Besides, at Human 5-HT4(d), the Emax is 30% and a half-maximal response (EC50) required 20 nM.

In turn, `O=C(O)C1(CN2CCC(COc3noc4cccc(OC5CCOCC5)c34)CC2)CCCC1` [Example 28, 1-{[4-({[4-(Tetrahydro-2H-pyran-4-yloxy)-1,2-benzisoxazol-3-yl]oxy}methyl)piperidin-1-yl]methyl}-cyclopentanecarboxylic acid] displayed a melting point of 172.9 °C. On Human 5-HT4(d), the Emax was 78% and the EC50 was determined as 6.6 nM.

In turn, `O=C(O)C1(CN2CCC(COc3noc4cccc(OCC5CCC5)c34)CC2)CCOCC1` [Example 18, 4-{[4-({[4-(Cyclobutylmethoxy)-1,2-benzisoxazol-3-yl]oxy}methyl)piperidin-1-yl]methyl}tetrahydro-2H-pyran-4-carboxylic acid] showed a melting point of 175.5 °C. At Human 5-HT4(d), this compound showed an Emax of 52% and an EC50 of 2 nM.
